Structures are written as SMILES.

Data set [1] can be described thus: Metabolic stability assay in rat liver microsomes. The format is in vitro ADME. To be noted: 1 μM compound, 0.5 mg/ml microsomal protein, 37° C.; for half-life at 1 µM: rat, liver microsomes, read-out: Metabolic stability half-life (T1/2, min, rat liver microsome). The procedure: The metabolic stability of the compounds was evaluated in incubation with rat liver microsomes.

The subject of the next data set is C2C12 cells. Nature of the data set: Mitochondrial uncoupling activity by oxygen consumption rate (OCR) assay, Seahorse, in presence of oligomycin. The format is cell-based, mouse. To be noted: for minimal effective concentration: Mus musculus, C2C12, in the presence of oligomycin 2.5 μM, read-out: COCR-min: minimal concentration increasing OCR in the presence of oligomycin. In short, it runs like this: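 Mouse C2C12 myoblasts grown in 10% FBS medium had OCR measured on Seahorse XF96/XF24 sequentially: basal, after 2.5 μM oligomycin (final), then after compound at varying concentrations. Rotenone/antimycin A confirmed mitochondrial origin. COCR-min is the minimal compound concentration inducing OCR in the presence of oligomycin.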

Data set [2] is described as follows: PO pharmacokinetic study, oral exposure (Example B3). In kind it is in vivo. The following applies: for AUC at 24 h / AUC(0-t) at 24 h: blood, po; for AUC at 24 h: 10 mg/kg gavage; for AUC(0-t) at 24 h: 10 mg/kg; for Fold increase over Compound 27 in U.S. Pat. No. 10,227,315: ratio of oral AUC 24 hr. The procedure: The blood concentration of the compound was then determined at 0 (pre-dosing), 5 min, 15 min, 30 min, 1 hr, 2 hr, 4 hr, 8 hr, 24 hr time points by LC-MS/MS analysis (See Tables 1 and 2, vide supra).

Data set [3] relates to high-fat diet (HFD)-induced diabetic mouse model. Nature of the data set: Efficacy in high-fat diet (HFD)-induced diabetic/fatty liver mouse model. The format is in vivo. To be noted: Mus musculus; HFD model, oral daily gavage; read-out: Efficacious dosage to reduce blood glucose in mouse models, oral daily gavage. As for the experimental part:
For HFD induced diabetic mouse model, C57Bl6 mice (male, n=6) were induced to obese and diabetic conditions by feeding high-fat diet (HFD, 60% fat calories, Research Diet, Inc. New Brunswick, NJ) for 3-4 months. […] During the 3-week period, the mice continued feeding HFD. […] The blood glucose levels were measured after an overnight fast, plasma insulin levels were tested after 5-6 hours fast, and the glycated HbA1c levels were determined in whole blood samples.
FIG. 15C and FIG. 15D show liver sections from mice fed HFD following 3 weeks of treatment with Compounds 25 and 64, respectively (P.O. dosing of 5 mg/kg, by daily gavage).
Experiments were similarly performed with other compounds, in either high-fat diet induced diabetes and fatty liver models, or in db/db mouse model, or in both, by daily oral gavage administration with low dosages.

In data set [4] the test system is LX-2 cells (human hepatic stellate cells). The data set is described as follows: Inhibition of TGFβ-induced hepatic stellate cell differentiation into myofibroblast-like cells. To be noted: TGFβ 10 ng/ml; for minimal effective concentration: Homo sapiens, LX-2, hepatic stellate cell differentiation to myofibroblast-like cells, 24 hours, read-out: Minimal inhibitory concentration; for inhibition of TGFβ-induced hepatic stellate cell differentiation: in words. The format is cell-based. The procedure: Liver fibrosis is one hallmark of NASH. […] This process could be modeled in vitro using the hepatic stellate differentiation experiment. The human hepatic stellate LX-2 cells were cultured within DMEM (Dulbecco's Modified Eagle Media, pH 7.4) supplied with 2% fetal bovine serum, 4.5 g/l glucose and 2 mM glutamine to 100 percent confluence. […] Cellular morphology was then examined under a microscope. As shown in FIG. 16 to FIG. 17, hepatic stellate cells could be induced by TGF-beta to differentiate into myofibroblast-like cells.

Another data set has as its system animal models. The following applies: mixed with food, cited from earlier work; for dose required to achieve efficacy, equivalent: equivalent of ppm in diet.
Data set [5] relates to cultured mammalian cells, the NIH-3T3 cells, C2C12 cells, and other mammalian cell lines. Nature of the data set: Mitochondrial membrane potential (MMP) assay, TMRE (or DilC1(5)) staining, related to OCR induction. In kind it is cell-based. The following applies: ratio of concentration leading to 10% MMP retention (90% MMP loss, TMRE) to minimal concentration leading to OCR increase. The procedure: Mitochondrial membrane potential assay was performed using the standard TMRE (tetramethylrhodamine ethyl ester) staining method with cultured mammalian cells, the NIH-3T3 cells, C2C12 cells, and other mammalian cell lines. Cells were seeded in 6-well plates and cultured in DMEM medium supplemented with 10% fetal bovine serum and 2 mM glutamine. Cells were allowed to grow to the logarithmic growth phase prior to experiments. The cells were treated with each individual compound at various concentrations for two hours, followed by staining with TMRE at a final concentration of 100 nM for 15 minutes. The cells were then washed once with PBS, and examined under fluorescence microscopy. Cells treated with various concentrations of niclosamide ethanolamine were used as a positive control.
In some examples, mitochondrial membrane potential was measured with DilC1(5) staining. Briefly, DilC1(5) was added to the cells to 50 nM final concentration and the cells were incubated at 37° C., 5% CO2, for 15 to 30 minutes. Cells were washed once by adding 2 mL of warm phosphate-buffered saline (PBS). Mitochondrial staining was determined by fluorescence microscopy with 633 nm excitation using standard filters for far-red emission.
Using the ratio between C10% TMRE (the concentration at which 10% MMP remains, i.e. 90% MMP is lost) and Cmin-OCR (the concentration at which minimal OCR induction is observed), we categorized the MMP-retaining uncouplers into two groups.

As to `CN(C)Cc1cc(Cl)cc(C(=O)Nc2nc3ccc(C(F)(F)F)cc3s2)c1O`, the half-life at 1 µM in data set [1] worked out at 14.7 h.

With `CN(C)Cc1cc(Cl)cc(C(=O)Nc2nc3ccc(OC(F)(F)F)cc3s2)c1O`, the “Metabolic stability half-life (T1/2, min, rat liver microsome)” value in data set [1] was “∞”.

On to `O=C(Nc1nc2ccc(C(F)(F)F)cc2s1)c1cc(Cl)cc(CN2CCOCC2)c1O`, for which the half-life at 1 µM in data set [1] amounted to 1.5 h.

What is called AUC is concentration integrated over time. The low end stands for low exposure, the high end for high exposure. Consider `O=C(Nc1nc2ccc(C(F)(F)F)cc2s1)c1cc(Cl)cc(C2CCCO2)c1O` (stereo not drawn) [Compound 15, 5-chloro-2-hydroxy-3-(tetrahydrofuran-2-yl)-N-(6-(trifluoromethyl)benzo[d]thiazol-2-yl)benzamide], for which the minimal effective concentration in the data set on C2C12 cells is less than 5 µM. The compound also showed an exposure (AUC) at 24 h in data set [2] greater than 120000 ng·h/mL. Besides, in data set [3], the minimal effective dose amounted to 2.5 mg/kg.

For `Cl.O=C(Nc1nc2ccc(C(F)(F)F)cc2s1)c1cc(Cl)cc(CN2CCOCC2)c1O` [Compound 16, 5-chloro-2-hydroxy-3-(morpholinomethyl)-N-(6-(trifluoromethyl)benzo[d]thiazol-2-yl)benzamide], the minimal effective concentration with C2C12 cells was less than 5 µM; in data set [4], 5 µM. For the same compound, the “effect on oxygen consumption rate (OCR)” value with C2C12 cells (in words) was “increase OCR in the presence of oligomycin”. This compound had an AUC at 24 h in data set [2] of 10000 to 30000 ng·h/mL. In data set [3], the minimal effective dose turned out to be 1 mg/kg. Moreover, in data set [4], the “inhibition of TGFβ-induced hepatic stellate cell differentiation” value was “able to directly inhibit hepatic stellate cell (HSC) activation in vitro”.

With `O=C(Nc1nc2ccc(C(F)(F)F)cc2s1)c1cc(Cl)cc(CN2CCCC2)c1O` [Compound 23, 5-chloro-2-hydroxy-3-(pyrrolidin-1-ylmethyl)-N-(6-(trifluoromethyl)benzo[d]thiazol-2-yl)benzamide], the minimal effective concentration is less than 5 µM with C2C12 cells and 5 µM in data set [4]. The exposure (AUC) at 24 h in data set [2] lay in the range of 10000 to 30000 ng·h/mL. In addition, the minimal effective dose in data set [3] was 10 mg/kg. In addition, the “inhibition of TGFβ-induced hepatic stellate cell differentiation” value in data set [4] is recorded as “able to directly inhibit hepatic stellate cell (HSC) activation in vitro”.

The AUC(0-t) is the area under the concentration-time curve up to a stated or last time point. Take `CCc1cc(Cl)cc(C(=O)Nc2nc3ccc(C(F)(F)F)cc3s2)c1O` [Compound 27 in U.S. Pat. No. 10,227,315, reference compound]: in data set [2], the exposure AUC(0-t) at 24 h is roughly 3000 ng·h/mL and the “Fold increase over Compound 27 in U.S. Pat. No. 10,227,315” value amounted to 1.0. For the same compound, in the data set on animal models, the “dose required to achieve efficacy, equivalent” value was 60 to 75 mg/kg/day and the “dose required to achieve efficacy, in diet” value was 600-750 ppm.

Consider `Cc1cc(Cl)cc(C(=O)Nc2nc3ccc(C(F)(F)F)cc3s2)c1O` [Compound 28 in U.S. Pat. No. 10,227,315, reference compound], for which, in data set [2], the AUC(0-t) at 24 h is 4410 ng·h/mL and the “Fold increase over Compound 27 in U.S. Pat. No. 10,227,315” value was determined as 1.5. In the data set on animal models, the “dose required to achieve efficacy, equivalent” value was 60 to 75 mg/kg/day and the “dose required to achieve efficacy, in diet” value is reported as 600-750 ppm.

With `CS(=O)(=O)C1CCN(Cc2cc(Cl)cc(C(=O)Nc3nc4ccc(C(F)(F)F)cc4s3)c2O)C1` (stereo not drawn) [Compound 37, 5-chloro-2-hydroxy-3-((3-(methylsulfonyl)pyrrolidin-1-yl)methyl)-N-(6-(trifluoromethyl)benzo[d]thiazol-2-yl)benzamide], the minimal effective concentration in the data set with C2C12 cells is greater than 10 µM. For the same compound, the C10%TMRE/Cmin-OCR in data set [5] is reported as roughly 37.

For `COCCOCc1cc(F)cc(C(=O)Nc2nc3ccc(C(F)(F)F)cc3s2)c1O` [Compound 43], the minimal effective concentration in the data set on C2C12 cells was less than 5 µM. For the same compound, in data set [5], the C10%TMRE/Cmin-OCR is listed as roughly 43.

As for `Cc1cc(Cl)cc(C(=O)Nc2nc3c(COCc4ccc(F)cc4)cc(C(F)(F)F)cc3s2)c1O` [Compound 83, 5-chloro-N-(4-(((4-fluorobenzyl)oxy)methyl)-6-(trifluoromethyl)benzo[d]thiazol-2-yl)-2-hydroxy-3-methylbenzamide], the minimal effective concentration with C2C12 cells was less than 5 µM. For the same compound, the C10%TMRE/Cmin-OCR in data set [5] was roughly 83.

On to `COCCN(CCOC)Cc1cc(Cl)cc(C(=O)Nc2nc3ccc(C(F)(F)F)cc3s2)c1O` [drawing 263], for which, in data set [1], the half-life at 1 µM was 0.467 h.

`O=C(Nc1nc2ccc(C(F)(F)F)cc2s1)c1cc(Cl)cc(CN2CCCCC2)c1O` [drawing 264]: the half-life at 1 µM in data set [1] is 1.53 h.
